For eight molecules, GI50 and TGI results are on record in PubChem BioAssay (NCI).

Molecules are shown by their SMILES. Values joined by “and” are separate entries in the source; they are usually repeats but may differ in a detail not shown here. Identical values can stand only once.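 Five compound concentrations were applied to cells in 96-well plates for 48 hours; endpoints were derived by simple linear interpolation of the resulting dose-response curve. GI50 marks 50% less growth. TGI denotes the concentration required for complete inhibition of growth.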 Bounds are passed on as bounds.

Some test systems named below: ACHN renal; DU-145 prostate; SW-620 colon; HOP-62 NSCLC; TK-10 renal; T-47D breast; NCI-H226 lung; KM12 colon; NCI/ADR-RES ovarian; OVCAR-3 ovarian.
What all share (test): NCI tumour cell line growth inhibition, 48 h

As for `C=C1C(C)C2C(Cc3ccccc3)NC(=O)C23C(OC(C)=O)C=CC(C)(O)C(=O)C(C)C/C=C/C3C1O` (centres undefined), the GI50 was 1280 nM in the assay with ACHN renal; 19100 nM in the assay with DU-145 prostate; above 500000 nM with SW-620 colon; 43.1 nM and 106 nM in the assay with HOP-62 NSCLC; 732 nM with TK-10 renal; 5140 nM with T-47D breast. For the same molecule, the GI50 in the assay with KM12 colon is 163000 nM; with NCI/ADR-RES ovarian, above 500000 nM. For the same molecule, the TGI was above 196000 nM with ACHN renal; above 500000 nM with DU-145 prostate; above 500000 nM with SW-620 colon; above 357000 nM in the assay with T-47D breast; 51400 nM and > 500000 nM in the assay on NCI-H226 lung; above 500000 nM in the assay on KM12 colon. The TGI in the assay with NCI/ADR-RES ovarian and in the assay on OVCAR-3 ovarian was above 500000 nM in each case.
As for `COc1cccc(/C=C\C(=O)c2ccccc2)c1`, the GI50 is 7340 nM in the assay with ACHN renal; 4730 nM with DU-145 prostate; 2700 nM in the assay on SW-620 colon; 20200 nM in the assay with HOP-62 NSCLC; 13700 nM in the assay on TK-10 renal; 9720 nM with T-47D breast. In addition, the GI50 in the assay with NCI-H226 lung was 16600 nM; with KM12 colon it was 2300 nM; in the assay on NCI/ADR-RES ovarian, 17200 nM; in the assay on OVCAR-3 ovarian it was 3040 nM. In addition, the TGI with ACHN renal came to 23400 nM; with DU-145 prostate, 20500 nM; with SW-620 colon, 7310 nM; with HOP-62 NSCLC, 42100 nM; with TK-10 renal it was 30400 nM; in the assay with T-47D breast it was 41300 nM. In addition, the TGI with NCI-H226 lung is 32900 nM; in the assay on KM12 colon it was 4910 nM; in the assay on NCI/ADR-RES ovarian it was above 100000 nM; in the assay on OVCAR-3 ovarian it was 13400 nM.
`COc1cc(F)c(F)c(Nc2ccc(I)cc2F)c1NS(=O)(=O)C1(CC(O)CO)CC1` (centres undefined): the GI50 was 17000 nM with ACHN renal; 19400 nM in the assay with DU-145 prostate; 13600 nM in the assay with SW-620 colon; 14000 nM in the assay on HOP-62 NSCLC; 14900 nM with TK-10 renal; 15700 nM in the assay with T-47D breast. In addition, the GI50 is 15200 nM with NCI-H226 lung, 13300 nM in the assay with KM12 colon, 18800 nM in the assay on NCI/ADR-RES ovarian and 14600 nM in the assay with OVCAR-3 ovarian. Further, the TGI was above 73900 nM with ACHN renal; 54000 nM with DU-145 prostate; above 59500 nM in the assay on SW-620 colon; 32400 nM with HOP-62 NSCLC; 72100 nM with TK-10 renal; above 75500 nM with T-47D breast. In addition, the TGI with NCI-H226 lung stood at 49200 nM; in the assay on KM12 colon, 30900 nM; with NCI/ADR-RES ovarian, 57900 nM; in the assay on OVCAR-3 ovarian, 36400 nM.
Consider `COc1cc2c3c(c4ccc(O)cc4c2cc1OC)[C@@H](O)[C@@H]1CCCN1C3`, for which the TGI was 38.1 nM with ACHN renal; 3.6 nM with DU-145 prostate; 1250 nM in the assay on SW-620 colon; 42.1 nM with HOP-62 NSCLC; 6.49 nM with TK-10 renal; 2.16 nM with T-47D breast. For the same molecule, the TGI came out at 13.7 nM in the assay with NCI-H226 lung, 8.37 nM in the assay with KM12 colon, 532 nM in the assay on NCI/ADR-RES ovarian and 4.93 nM with OVCAR-3 ovarian.
In the case of `O=C(/C=C/c1ccco1)Nc1ncc(Cc2cc(Cl)ccc2Cl)s1`, the GI50 in the assay on ACHN renal was 66.4 nM; in the assay on DU-145 prostate it was 55 nM; in the assay on SW-620 colon, 41.7 nM; in the assay with HOP-62 NSCLC it was 64.5 nM; in the assay with TK-10 renal, 6880 nM; with T-47D breast, 255 nM. The GI50 was 581 nM in the assay with NCI-H226 lung, 41.9 nM with KM12 colon, 32.7 nM with NCI/ADR-RES ovarian and 29.4 nM in the assay with OVCAR-3 ovarian. In addition, the TGI is above 100000 nM with ACHN renal; above 41600 nM in the assay on DU-145 prostate; above 100000 nM in the assay with SW-620 colon; above 76500 nM with HOP-62 NSCLC; above 100000 nM with TK-10 renal; above 100000 nM in the assay with T-47D breast. For the same molecule, the TGI with NCI-H226 lung was above 100000 nM; in the assay on KM12 colon it was above 100000 nM; in the assay with NCI/ADR-RES ovarian it was 370 nM; in the assay on OVCAR-3 ovarian it was 122 nM.
For `CCCCCn1sc(=O)n(Cc2ccc(CNC(=O)C(C)c3ccc(CC(C)C)cc3)cc2)c1=O` (centres undefined), the GI50 is 498 nM in the assay with ACHN renal; 1170 nM with DU-145 prostate; 370 nM with SW-620 colon; 1410 nM in the assay with HOP-62 NSCLC; 736 nM with TK-10 renal; 1600 nM in the assay on T-47D breast. For the same molecule, the GI50 with NCI-H226 lung was 1300 nM; with KM12 colon, 1590 nM; in the assay with NCI/ADR-RES ovarian it was 1650 nM; in the assay with OVCAR-3 ovarian, 488 nM. Moreover, the TGI in the assay with ACHN renal worked out at 1730 nM; in the assay with DU-145 prostate it was 2400 nM; in the assay on SW-620 colon it was 1460 nM; in the assay on HOP-62 NSCLC, 3350 nM; with TK-10 renal it was 2050 nM; with T-47D breast, 4050 nM. Also, the TGI turned out to be 2670 nM in the assay on NCI-H226 lung, 3300 nM in the assay on KM12 colon, 5540 nM in the assay with NCI/ADR-RES ovarian and 1630 nM with OVCAR-3 ovarian.
For `COc1cc2c3c(c4cc(OC)c(OC)cc4c2cc1OC)CN1CCC[C@H]1C3`, the TGI in the assay on ACHN renal was 2370 nM and 393 nM; with DU-145 prostate, 187 nM; with HOP-62 NSCLC, 2850 nM; with TK-10 renal, 103 nM and 497 nM; with T-47D breast it was 330 nM; in the assay with NCI-H226 lung it was 1060 nM. Besides, the TGI with KM12 colon is 1220 nM; in the assay with OVCAR-3 ovarian, 379 nM and 1150 nM. For the same molecule, the GI50 with DU-145 prostate was 20.5 nM; in the assay on SW-620 colon, 73.4 nM and < 12.4 nM; with HOP-62 NSCLC it was 40.9 nM and < 14.7 nM; in the assay with T-47D breast, 19.2 nM; in the assay on KM12 colon, 45.2 nM and < 10 nM; in the assay on NCI/ADR-RES ovarian, 111 nM and 37.9 nM.
In the case of `CC[C@H](C)[C@H](NC(=O)CN(C)C)C(=O)N(C)[C@H](C[C@@H](OC(C)=O)c1nc(C(=O)NC23C4C5C2C2C3C4C52C(=O)OC)cs1)C(C)C` (some centres undefined), the GI50 was 2250 nM with ACHN renal; 176 nM with DU-145 prostate; 226 nM in the assay with SW-620 colon; 9480 nM in the assay with TK-10 renal; above 33200 nM in the assay on T-47D breast; above 29000 nM in the assay on NCI-H226 lung. Also, the GI50 in the assay on KM12 colon is 740 nM; in the assay on NCI/ADR-RES ovarian, 11100 nM; in the assay on OVCAR-3 ovarian, 113 nM. Further, the TGI with ACHN renal, with DU-145 prostate, in the assay on SW-620 colon, with HOP-62 NSCLC, with TK-10 renal and in the assay on T-47D breast was above 33200 nM in each case. In addition, the TGI in the assay on NCI-H226 lung was above 33200 nM; in the assay with KM12 colon, above 33200 nM; in the assay on NCI/ADR-RES ovarian it was above 33200 nM; in the assay with OVCAR-3 ovarian it was 1310 nM.
